The subject of one series is scopolamine-treated rats. The experiment in a line: Passive avoidance (PA) in scopolamine-treated rats. The series is classed as in vivo, Sprague-Dawley rats. How it is done:
Naive male Sprague-Dawley rats, three months old (obtained from Charles River Breeding, U.K.), were used (weighing 200-300 g.). The passive avoidance (PA) test is according to Fisher et al, Neurosci. Lett. 102: 325 (1989), except that in these rats amnesia was induced by scopolamine.
Eight groups of 17-20 naive rats were used. Each group was divided into two subgroups of 7-10 rats each: subgroup 1 was injected with scopolamine HBr (0.5 mg./kg. in saline, s.c., 15 min. before the shock) and subgroup 2 was injected with saline (1 ml./kg., s.c., 15 min. before the shock). Seven of the groups were treated within one minute after the shock with one of the following doses of the tested compound: 0.1, 0.5, 1, 3, 5, 8, 10 mg./kg. (in saline, i.p.) and one group received saline (1 ml./kg., i.p.).
Eight groups of 18-20 naive rats each were used. Each group was divided into two subgroups of 9-10 rats each: subgroup 1 was injected with scopolamine HBr (0.5 mg./kg. in saline, s.c., 15 min. before the shock) and subgroup 2 was injected with saline (1 ml./kg., s.c., 15 min. before the shock). Seven of the groups were treated, within one minute after the shock, with one of the following doses of AF125(N): 0.1, 0.5, 1, 3, 5, 8 or 10 mg./kg. (in saline, i.p.) and one group received saline (1 ml./kg., i.p.).

For series [1], the system named is AF64A-injected mature rats. The experiment in a line: 8-arm radial maze (RAM) in AF64A-treated rats, Part A. The series is classed as in vivo. To be noted: AF125 0.5 mg./kg. i.p. How it is done:
This animal model mimics the cholinergic hypofunction and cognitive dysfunction in SDAT (Fisher and Hanin, loc cit; Fisher et al, Neurosci. Lett. 102: 325-331, 1989); the method described in the latter publication was used here.
Forty eight mature male (11-12 months) rats which were used in this study. They were injected icv with AF64A (3 nmole/2 µl./side) 8 months earlier, at the age of three months. One week before the behavioral testing, rats were transferred to individual cages and were food restricted until reaching 90% of their free feeding weight (the rats had free access to water). The room was illuminated 12 hrs a day (6:00 to 18:00) and behavioral testing sessions were carried out during the mornings. After reaching 90% of free feeding weight, rats received about 4 food pellets per day (Altromin, 15 g.) in order to further reduce the rats' weights. Two days before behavioral testing the rats were fed with precision pellets (Bioserv Inc.) which were later used for reinforcement in the maze.
Behavioral tests were conducted in an elevated (70cm) 8-arms radial maze, made of PVC. […]
Due to the size of the batch (48 rats) the experiment was conducted in two phases. […] The correct choices, number of errors and total time scores were analyzed by a 2-way ANOVA (2x2) (Injection-AF64A/saline and Treatment-AF125 0.5 mg./kg./saline).

Series [2] deals with CA1 neurons in the hippocampal slice. The experiment in a line: Electrophysiological evaluation in rat hippocampal slices. How it is done:
In general terms the effects of microdrops of AF150, ACh and PZ were applied to rat hippocampal cells recorded intracellularly. The exact concentrations of the drug at the receptor sites are not known, using this method. However, this method has an advantage over the perfusion method, in that it gives a more correct picture from the electrophysiological point of view (Segal, loc cit).
Intracellular responses to AF150 of CA1 neurons in the hippocampal slice were recorded, using the method of Segal. Small hyperpolarizing current pulses (current traces not shown) were alternated with stimulation of the Schaffer-commissural afferents producing postsynaptic potentials.

Setting [3] is: post-shock AF125 0.1 mg/kg i.p., pre-shock Saline.
[4] abbreviates: post-shock AF125 0.1 mg/kg i.p., pre-shock Scopolamine.
[5] abbreviates: post-shock AF125 0.5 mg/kg i.p., pre-shock Saline.
[6] abbreviates: post-shock AF125 0.5 mg/kg i.p., pre-shock Scopolamine.
Setting [7] is: post-shock AF125 1.0 mg/kg i.p., pre-shock Saline.
Setting [8] is: post-shock AF125 1.0 mg/kg i.p., pre-shock Scopolamine.
[9] abbreviates: post-shock AF125 3.0 mg/kg i.p., pre-shock Saline.
The mark [10] stands for this setting: post-shock AF125 3.0 mg/kg i.p., pre-shock Scopolamine.
The mark [11] stands for this setting: post-shock AF125 5.0 mg/kg i.p., pre-shock Saline.
The mark [12] stands for this setting: post-shock AF125 5.0 mg/kg i.p., pre-shock Scopolamine.
Setting [13] is: post-shock AF125 8.0 mg/kg i.p., pre-shock Saline.
[14] abbreviates: post-shock AF125 8.0 mg/kg i.p., pre-shock Scopolamine.
Setting [15] is: post-shock AF125 10.0 mg/kg i.p., pre-shock Saline.
The mark [16] stands for this setting: post-shock AF125 10.0 mg/kg i.p., pre-shock Scopolamine.

SMILES strings stand for the structures. Where two headings read alike, the source gives them in different places.

`CC1=NCC2(CN3CCC2CC3)O1` (racemic) [AF125, 2-Methyl-spiro(1,3 oxazoline-5,3')quinuclidine]: the side effects result in the series with scopolamine-treated rats (3 mg./kg. i.p., pre-shock saline treated rats) is on record as “slight diarrhea”; in the series with scopolamine-treated rats (5 mg./kg. i.p., pre-shock saline treated rats), “stronger diarrhea”; in the series on scopolamine-treated rats (8 and 10 mg./kg. i.p., pre-shock saline treated rats), “severe diarrhea with lacrimation”; in the series on scopolamine-treated rats (pre-shock scopolamine treated rats) it was “did not exhibit any side effects”. For the same compound, the “Initial latency, Mean” value with scopolamine-treated rats (setting [3]) was determined as 49.5; in the series on scopolamine-treated rats (setting [4]), 33.6; with scopolamine-treated rats (setting [5]) it was 42.0; with scopolamine-treated rats (setting [6]), 47.4; in the series on scopolamine-treated rats (setting [7]), 36.0; with scopolamine-treated rats (setting [8]), 23.3. Besides, the “Initial latency, Mean” value in the series on scopolamine-treated rats (setting [9]) is on record as 51.9; with scopolamine-treated rats (setting [10]), 47.3; in the series with scopolamine-treated rats (setting [11]), 34.7; with scopolamine-treated rats (setting [12]), 51.3; in the series with scopolamine-treated rats (setting [13]) it was 41.2; in the series with scopolamine-treated rats (setting [14]), 53.9. Further, the figures for the “Initial latency, Mean” value in the series with scopolamine-treated rats (setting [15]) and in the series with scopolamine-treated rats (setting [16]) were 46.3 and 45.9, respectively. For the same compound, the “Retention latency, Mean” value with scopolamine-treated rats (setting [3]) worked out at 572.8; in the series on scopolamine-treated rats (setting [4]), 128.8; with scopolamine-treated rats (setting [5]) it was 600.0; with scopolamine-treated rats (setting [6]), 222.7; with scopolamine-treated rats (setting [7]) it was 555.8; in the series on scopolamine-treated rats (setting [8]) it was 261.2. Besides, the “Retention latency, Mean” value with scopolamine-treated rats (setting [9]) is reported as 530.4; in the series on scopolamine-treated rats (setting [10]), 296.0; in the series with scopolamine-treated rats (setting [11]), 426.7; in the series with scopolamine-treated rats (setting [12]) it was 227.3; with scopolamine-treated rats (setting [13]) it was 594.1; in the series on scopolamine-treated rats (setting [14]) it was 294.9. The “Retention latency, Mean” value worked out at 498.3 in the series with scopolamine-treated rats (setting [15]) and 288.3 in the series on scopolamine-treated rats (setting [16]). The Side-effects entry in series [1] is “Only two saline-injected rats treated with AF125 had diarrhoea”. For the same compound, the “correct choices out of the first eight entries” value in series [1] (AF64A-injected rats) is 6.53±0.36.

On to `CC1=NCC2(CCN(C)CC2)O1` [AF150, 2-Methyl-spiro(1,3-oxazoline-5,4')-1'-methylpiperidine], for which the “slow AHP (Ca++-dependent K+ conductance)” value in series [2] (applied topically by microdrops) was “blocks the slow AHP”. Besides, the depolarization entry in series [2] (applied topically by microdrops (AF150: 100 µM)) is “potent depolarizing response”. Moreover, the “input resistance at rest” value in series [2] (microdrops (100 µM)) was “real increase in input resistance at rest”. Further, the “postsynaptic potentials (PSPs)” value in series [2] (microdrops (100 µM)) was “small reduction in postsynaptic potentials”. For the same compound, the “analgesia (tail pinch)” value in the series on Mice, Male CD strain (1 mg./kg. i.p., any time of observation) was “No analgesia”; in the series on Mice, Male CD strain (5 mg./kg i.p., 15 minutes after injection), “Partial analgesia”; with Mice, Male CD strain (10 mg./kg. i.p., 15 and 30 minutes), “complete”; in the series with Mice, Male CD strain (10 mg./kg. i.p., ≥ 60 minutes), “no analgesia”.

Values taken from patent EP0452101B1, “Spiro bridged and unbridged heterocyclic compounds” (ISRAEL INSTITUTE FOR BIOLOGICAL RESEARCH, priority 1990, dated 1991).
